The NIST ThermoML archive (doi:10.1016/j.jct.2012.09.017)
Numbers after ± are expanded uncertainties.

Experiment: activity coefficient (dimensionless); of the first substance listed, at infinite dilution; xn = mol fraction of the nth substance listed
Conditions: 101 kPa, Liquid, Chromatography, x1 = 0

activity coefficient (318.15 K)	activity coefficient (323.15 K)	activity coefficient (333.15 K)	activity coefficient (343.15 K)	activity coefficient (353.15 K)	activity coefficient (363.15 K)	activity coefficient (373.15 K)	Compound
0.506 ± 0.031	0.524 ± 0.031	0.56 ± 0.032	0.594 ± 0.032	0.628 ± 0.033	–	–	COCCOC [1,2-dimethoxyethane] + CCCC[N+]1(C)CCCC1.N#C[B-](C#N)(C#N)C#N
–	–	1.16 ± 0.05	1.2 ± 0.06	1.23 ± 0.06	1.26 ± 0.06	1.29 ± 0.06	COCCOC [1,2-dimethoxyethane] + CCCC[N+]1(C)CCCC1.O=C1O[B-]2(OC1=O)OC(=O)C(=O)O2
0.842 ± 0.039	0.869 ± 0.04	0.923 ± 0.041	0.977 ± 0.043	1.03 ± 0.05	–	–	FC(F)(F)C(Cl)Br (stereo not given) [1-bromo-1-chloro-2,2,2-trifluoroethane] + CCCC[N+]1(C)CCCC1.N#C[B-](C#N)(C#N)C#N
–	–	1.61 ± 0.08	1.66 ± 0.08	1.72 ± 0.09	1.77 ± 0.09	1.82 ± 0.09	FC(F)(F)C(Cl)Br (stereo not given) [1-bromo-1-chloro-2,2,2-trifluoroethane] + CCCC[N+]1(C)CCCC1.O=C1O[B-]2(OC1=O)OC(=O)C(=O)O2
2.39 ± 0.12	2.41 ± 0.12	2.45 ± 0.13	2.48 ± 0.13	2.52 ± 0.13	–	–	COC(C)(C)C [2-methoxy-2-methylpropane] + CCCC[N+]1(C)CCCC1.N#C[B-](C#N)(C#N)C#N
–	–	6.34 ± 0.33	6.06 ± 0.31	5.87 ± 0.3	5.7 ± 0.29	5.57 ± 0.29	COC(C)(C)C [2-methoxy-2-methylpropane] + CCCC[N+]1(C)CCCC1.O=C1O[B-]2(OC1=O)OC(=O)C(=O)O2
0.425 ± 0.029	0.426 ± 0.029	0.427 ± 0.029	0.429 ± 0.029	0.43 ± 0.029	–	–	CC#N [acetonitrile] + CCCC[N+]1(C)CCCC1.N#C[B-](C#N)(C#N)C#N
–	–	0.509 ± 0.031	0.512 ± 0.031	0.514 ± 0.031	0.516 ± 0.031	0.517 ± 0.031	CC#N [acetonitrile] + CCCC[N+]1(C)CCCC1.O=C1O[B-]2(OC1=O)OC(=O)C(=O)O2
0.833 ± 0.039	0.841 ± 0.039	0.858 ± 0.039	0.874 ± 0.04	0.891 ± 0.04	–	–	c1ccccc1 [benzene] + CCCC[N+]1(C)CCCC1.N#C[B-](C#N)(C#N)C#N
–	–	1.65 ± 0.08	1.63 ± 0.08	1.61 ± 0.08	1.6 ± 0.08	1.59 ± 0.08	c1ccccc1 [benzene] + CCCC[N+]1(C)CCCC1.O=C1O[B-]2(OC1=O)OC(=O)C(=O)O2
8.51 ± 0.44	8.26 ± 0.43	7.83 ± 0.4	7.44 ± 0.38	7.11 ± 0.37	–	–	C1CCCCC1 [cyclohexane] + CCCC[N+]1(C)CCCC1.N#C[B-](C#N)(C#N)C#N
–	–	20.2 ± 1	17.9 ± 0.9	16.2 ± 0.8	14.7 ± 0.8	13.6 ± 0.7	C1CCCCC1 [cyclohexane] + CCCC[N+]1(C)CCCC1.O=C1O[B-]2(OC1=O)OC(=O)C(=O)O2
0.536 ± 0.031	0.542 ± 0.031	0.59 ± 0.03	0.574 ± 0.032	0.59 ± 0.032	–	–	ClCCl [dichloromethane] + CCCC[N+]1(C)CCCC1.N#C[B-](C#N)(C#N)C#N
–	–	0.745 ± 0.036	0.76 ± 0.037	0.774 ± 0.037	0.789 ± 0.037	0.803 ± 0.038	ClCCl [dichloromethane] + CCCC[N+]1(C)CCCC1.O=C1O[B-]2(OC1=O)OC(=O)C(=O)O2
5.87 ± 0.3	5.88 ± 0.3	5.86 ± 0.3	5.85 ± 0.3	5.84 ± 0.3	–	–	CC(C)OC(C)C [diisopropyl ether] + CCCC[N+]1(C)CCCC1.N#C[B-](C#N)(C#N)C#N
–	–	18.4 ± 1	17 ± 0.9	16 ± 0.8	15.1 ± 0.8	14.4 ± 0.7	CC(C)OC(C)C [diisopropyl ether] + CCCC[N+]1(C)CCCC1.O=C1O[B-]2(OC1=O)OC(=O)C(=O)O2

activity coefficient (318.15 K)	activity coefficient (323.15 K)	activity coefficient (333.15 K)	activity coefficient (343.15 K)	activity coefficient (353.15 K)	activity coefficient (363.15 K)	activity coefficient (373.15 K)	Compound
0.522 ± 0.031	0.529 ± 0.031	0.543 ± 0.031	0.556 ± 0.032	0.57 ± 0.032	–	–	COC(=O)OC [dimethyl carbonate] + CCCC[N+]1(C)CCCC1.N#C[B-](C#N)(C#N)C#N
–	–	0.853 ± 0.039	0.861 ± 0.039	0.87 ± 0.04	0.877 ± 0.04	0.884 ± 0.04	COC(=O)OC [dimethyl carbonate] + CCCC[N+]1(C)CCCC1.O=C1O[B-]2(OC1=O)OC(=O)C(=O)O2
1.32 ± 0.06	1.27 ± 0.06	1.17 ± 0.05	1.09 ± 0.05	1.02 ± 0.05	–	–	CCO [ethanol] + CCCC[N+]1(C)CCCC1.N#C[B-](C#N)(C#N)C#N
–	–	1.92 ± 0.1	1.75 ± 0.09	1.61 ± 0.08	1.49 ± 0.07	1.38 ± 0.07	CCO [ethanol] + CCCC[N+]1(C)CCCC1.O=C1O[B-]2(OC1=O)OC(=O)C(=O)O2
0.942 ± 0.042	0.949 ± 0.042	0.967 ± 0.043	0.982 ± 0.043	1 ± 0.04	–	–	CCOC(C)=O [ethyl acetate] + CCCC[N+]1(C)CCCC1.N#C[B-](C#N)(C#N)C#N
–	–	1.75 ± 0.09	1.74 ± 0.09	1.74 ± 0.09	1.73 ± 0.09	1.73 ± 0.09	CCOC(C)=O [ethyl acetate] + CCCC[N+]1(C)CCCC1.O=C1O[B-]2(OC1=O)OC(=O)C(=O)O2
1.65 ± 0.08	1.66 ± 0.08	1.68 ± 0.08	1.71 ± 0.09	1.73 ± 0.09	–	–	CCc1ccccc1 [ethylbenzene] + CCCC[N+]1(C)CCCC1.N#C[B-](C#N)(C#N)C#N
–	–	3.97 ± 0.2	3.85 ± 0.2	3.74 ± 0.19	3.65 ± 0.19	3.56 ± 0.18	CCc1ccccc1 [ethylbenzene] + CCCC[N+]1(C)CCCC1.O=C1O[B-]2(OC1=O)OC(=O)C(=O)O2
17.6 ± 0.9	17 ± 0.9	15.8 ± 0.8	14.8 ± 0.8	13.9 ± 0.7	–	–	CCC1CCCCC1 [ethylcyclohexane] + CCCC[N+]1(C)CCCC1.N#C[B-](C#N)(C#N)C#N
–	–	41.8 ± 2.2	36.9 ± 1.9	33 ± 1.7	29.7 ± 1.5	27 ± 1.4	CCC1CCCCC1 [ethylcyclohexane] + CCCC[N+]1(C)CCCC1.O=C1O[B-]2(OC1=O)OC(=O)C(=O)O2
23.2 ± 1.2	22.4 ± 1.2	20.9 ± 1.1	19.7 ± 1	18.5 ± 1	–	–	CCCCCCC [heptane] + CCCC[N+]1(C)CCCC1.N#C[B-](C#N)(C#N)C#N
–	–	62.9 ± 3.3	55.4 ± 2.9	49.5 ± 2.6	44.7 ± 2.3	40.8 ± 2.1	CCCCCCC [heptane] + CCCC[N+]1(C)CCCC1.O=C1O[B-]2(OC1=O)OC(=O)C(=O)O2
1.03 ± 0.05	0.992 ± 0.043	0.931 ± 0.042	0.878 ± 0.04	0.831 ± 0.039	–	–	CO [methanol] + CCCC[N+]1(C)CCCC1.N#C[B-](C#N)(C#N)C#N
–	–	1.27 ± 0.06	1.19 ± 0.05	1.11 ± 0.05	1.05 ± 0.05	0.99 ± 0.043	CO [methanol] + CCCC[N+]1(C)CCCC1.O=C1O[B-]2(OC1=O)OC(=O)C(=O)O2
0.671 ± 0.034	0.678 ± 0.034	0.693 ± 0.035	0.708 ± 0.035	0.724 ± 0.036	–	–	COC(C)=O [methyl ethanoate] + CCCC[N+]1(C)CCCC1.N#C[B-](C#N)(C#N)C#N

Compound	activity coefficient (318.15 K)	activity coefficient (323.15 K)	activity coefficient (333.15 K)	activity coefficient (343.15 K)	activity coefficient (353.15 K)	activity coefficient (363.15 K)	activity coefficient (373.15 K)
Cc1cccc(C)c1 [1,3-dimethylbenzene] + CCCC[N+]1(C)CCCC1.N#C[B-](C#N)(C#N)C#N	1.63 ± 0.08	1.64 ± 0.08	1.66 ± 0.08	1.69 ± 0.08	1.72 ± 0.09	–	–
Cc1cccc(C)c1 [1,3-dimethylbenzene] + CCCC[N+]1(C)CCCC1.O=C1O[B-]2(OC1=O)OC(=O)C(=O)O2	–	–	3.96 ± 0.2	3.84 ± 0.2	3.73 ± 0.19	3.64 ± 0.19	3.55 ± 0.18
CC(C)=O [acetone] + CCCC[N+]1(C)CCCC1.N#C[B-](C#N)(C#N)C#N	0.445 ± 0.03	0.45 ± 0.03	0.461 ± 0.03	0.471 ± 0.03	0.481 ± 0.03	–	–
CC(C)=O [acetone] + CCCC[N+]1(C)CCCC1.O=C1O[B-]2(OC1=O)OC(=O)C(=O)O2	–	–	0.762 ± 0.037	0.767 ± 0.037	0.773 ± 0.037	0.778 ± 0.037	0.784 ± 0.037
CCC(C)=O [butanone] + CCCC[N+]1(C)CCCC1.N#C[B-](C#N)(C#N)C#N	0.546 ± 0.031	0.551 ± 0.031	0.564 ± 0.032	0.575 ± 0.032	0.588 ± 0.032	–	–
CCC(C)=O [butanone] + CCCC[N+]1(C)CCCC1.O=C1O[B-]2(OC1=O)OC(=O)C(=O)O2	–	–	1.13 ± 0.05	1.12 ± 0.05	1.11 ± 0.05	1.11 ± 0.05	1.1 ± 0.05
